{"source": "DBAASP", "experiment_in_all_cases": "≥ marks a high value that may be exact or a test limit, other limits are often not marked, values filed in µg/mL are converted to µM", "key": {"[1]": {"test_system": "Xanthomonas axonopodis pv. glycines"}, "[2]": {"test_system": "Escherichia coli ATCC 25922"}, "[3]": {"test_system": "Staphylococcus aureus ATCC 25923"}, "[4]": {"test_system": "Candida albicans 08030102"}, "[5]": {"test_system": "Staphylococcus aureus 08032706"}, "Escherichia coli": {"test_system": "Escherichia coli"}, "[6]": {"test_system": "Staphylococcus epidermidis"}, "[7]": {"test_system": "Salmonella enterica subsp. enterica serovar Paratyphi A"}, "[8]": {"test_system": "Candida glabrata 09050201"}, "[9]": {"test_system": "Candida albicans 08030401"}, "Shigella sp.": {"test_system": "Shigella sp."}, "Nocardia asteroides": {"test_system": "Nocardia asteroides"}, "[10]": {"test_system": "Enterococcus faecium 1299"}, "[11]": {"test_system": "Stenotrophomonas maltophilia"}, "Bacillus cereus": {"test_system": "Bacillus cereus"}, "[12]": {"test_system": "Candida albicans 08022821"}, "Candida glabrata 08A802": {"test_system": "Candida glabrata 08A802"}, "[13]": {"test_system": "Candida albicans 08022710"}, "[14]": {"test_system": "Candida albicans 08030809"}, "Klebsiella pneumoniae": {"test_system": "Klebsiella pneumoniae"}, "Escherichia coli 319238": {"test_system": "Escherichia coli 319238"}, "[15]": {"test_system": "Pseudomonas syringae pv. tomato"}, "[16]": {"test_system": "Enterococcus faecalis NCTC 775"}, "[17]": {"test_system": "Acinetobacter baumannii NCTC 13302"}, "Pseudomonas syringae": {"test_system": "Pseudomonas syringae"}, "[18]": {"test_system": "Pseudomonas aeruginosa NCTC 13437"}, "[19]": {"test_system": "Escherichia coli CFI_160_KPC2"}, "Escherichia coli LEC 001": {"test_system": "Escherichia coli LEC 001"}, "[20]": {"test_system": "Escherichia coli NCTC 12923"}, "Acinetobacter baumannii": {"test_system": "Acinetobacter baumannii"}, "Klebsiella pneumoniae M6": {"test_system": "Klebsiella pneumoniae M6"}, "[21]": {"test_system": "Klebsiella pneumoniae NCTC 13368"}, "[22]": {"test_system": "Enterococcus faecalis NCTC 12204"}, "[23]": {"test_system": "Staphylococcus aureus NCTC 9144"}, "[24]": {"test_system": "Escherichia coli CFI_161_NDM"}, "[25]": {"test_system": "Acinetobacter baylyi ADP1"}, "Escherichia coli BL21": {"test_system": "Escherichia coli BL21"}, "[26]": {"test_system": "Enterococcus faecalis NCTC 12201"}, "[27]": {"test_system": "Streptococcus pyogenes GAS M1T1"}, "[28]": {"test_system": "Xanthomonas axonopodis pv. phaseoli ATCC 9563"}, "[29]": {"test_system": "Acinetobacter baumannii ATCC 17987"}, "[30]": {"test_system": "Pseudomonas aeruginosa PAO1"}, "[31]": {"test_system": "Acinetobacter baumannii NCTC 13424"}, "[32]": {"test_system": "Xanthomonas axonopodis pv. phaseoli"}, "Staphylococcus aureus 15": {"test_system": "Staphylococcus aureus 15"}, "[33]": {"test_system": "Acinetobacter baumannii AYE"}}, "note": "Several values for one entry are separate records, joined by “and”; a condition that tells them apart may be missing. Equal values may be shown once.", "data": [{"smiles": "CC[C@H](C)[C@H](NC(=O)[C@@H](NC(=O)[C@H](CO)NC(=O)[C@H](Cc1c[nH]c2ccccc12)NC(=O)[C@H](CC(C)C)NC(=O)CN)[C@@H](C)O)C(=O)N[C@@H](CCCCN)C(=O)N[C@@H](CC(N)=O)C(=O)N[C@H](C(=O)N[C@@H](C)C(=O)N[C@@H](C)C(=O)N[C@@H](C)C(=O)N[C@@H](C)C(=O)NCC(=O)N[C@@H](CCCCN)C(=O)N[C@@H](C)C(=O)N[C@@H](C)C(=O)N[C@@H](CC(C)C)C(=O)NCC(=O)N[C@@H](C)C(=O)N[C@@H](CC(C)C)C(N)=O)C(C)C", "note": "[GLWSTIKNVAAAAGKAALGAL]", "values": [{"measurement": "MIC", "setting": "[1]", "value": 2, "unit": "µM"}, {"measurement": "MIC", "setting": "[2]", "value": 17.8, "unit": "µM"}, {"measurement": "MIC", "setting": "[3]", "value": 32.3, "unit": "µM"}]}, {"smiles": "CC[C@H](C)[C@H](NC(=O)[C@H](CO)NC(=O)[C@H](CO)NC(=O)CNC(=O)CNC(=O)CNC(=O)[C@H](C)NC(=O)[C@H](Cc1ccccc1)NC(=O)[C@H](Cc1ccccc1)NC(=O)[C@H](CCCCN)NC(=O)[C@H](CCCCN)NC(=O)[C@H](CC(C)C)NC(=O)[C@H](CCCN=C(N)N)NC(=O)[C@H](CCCN=C(N)N)NC(=O)[C@H](CCSC)NC(=O)[C@H](Cc1ccccc1)NC(=O)[C@H](CCCCN)NC(=O)[C@H](CCCN=C(N)N)NC(=O)[C@H](Cc1ccccc1)NC(=O)CNC(=O)[C@H](CC(N)=O)NC(=O)[C@H](CCCN=C(N)N)NC(=O)[C@@H](N)CCCCN)C(=O)N[C@@H](C)C(=O)N[C@@H](Cc1cnc[nH]1)C(=O)N[C@H](C(=O)N[C@@H](CCCCN)C(=O)N[C@@H](CC(C)C)C(=O)N[C@@H](Cc1cnc[nH]1)C(=O)O)[C@@H](C)CC", "note": "[KRNGFRKFMRRLKKFFAGGGSSIAHIKLH]", "values": [{"measurement": "MIC", "setting": "[4]", "value": 5.53, "unit": "µM"}, {"measurement": "MIC", "setting": "[5]", "value": 22.1, "unit": "µM"}, {"measurement": "MIC", "setting": "Escherichia coli", "value": 22.1, "unit": "µM"}, {"measurement": "MIC", "setting": "[6]", "value": 22.1, "unit": "µM"}, {"measurement": "MIC", "setting": "[7]", "value": 22.1, "unit": "µM"}, {"measurement": "MIC", "setting": "[8]", "value": 22.1, "unit": "µM"}, {"measurement": "MIC", "setting": "[9]", "value": 11.1, "unit": "µM"}, {"measurement": "MIC", "setting": "Shigella sp.", "value": 0.691, "unit": "µM"}, {"measurement": "MIC", "setting": "Nocardia asteroides", "value": 11.1, "unit": "µM"}, {"measurement": "MIC", "setting": "[2]", "value": 11.1, "unit": "µM"}, {"measurement": "MIC", "setting": "[10]", "value": 5.53, "unit": "µM"}, {"measurement": "MIC", "setting": "[11]", "value": 2.77, "unit": "µM"}, {"measurement": "MIC", "setting": "Bacillus cereus", "value": 2.77, "unit": "µM"}, {"measurement": "MIC", "setting": "[12]", "value": 11.1, "unit": "µM"}, {"measurement": "MIC", "setting": "Candida glabrata 08A802", "value": 11.1, "unit": "µM"}, {"measurement": "MIC", "setting": "[13]", "value": 11.1, "unit": "µM"}, {"measurement": "MIC", "setting": "[14]", "value": 11.1, "unit": "µM"}, {"measurement": "MIC", "setting": "Klebsiella pneumoniae", "value": 22.1, "unit": "µM"}]}, {"smiles": "CC[C@H](C)[C@H](NC(=O)[C@H](CCCCN)NC(=O)[C@H](CCC(=O)O)NC(=O)[C@H](CCCCN)NC(=O)[C@H](Cc1c[nH]c2ccccc12)NC(=O)[C@H](C)N)C(=O)N[C@@H](CCCN=C(N)N)C(=O)N[C@@H](CCCCN)C(=O)N[C@@H](CCCCN)C(=O)N[C@@H](CC(C)C)C(=O)N[C@@H](CCCCN)C(=O)N[C@@H](CC(N)=O)C(=O)N[C@@H](CCC(=O)O)C(=O)N[C@H](C(=O)N[C@@H](CCCCN)C(=O)N[C@@H](CCCCN)C(=O)N[C@@H](CCCCN)C(=O)N[C@@H](Cc1c[nH]c2ccccc12)C(=O)N[C@@H](CCCN=C(N)N)C(=O)N[C@@H](CCCCN)C(=O)N[C@@H](C)C(=O)N[C@H](C(=O)N[C@H](C(=O)N[C@@H](C)C(=O)N[C@@H](Cc1c[nH]c2ccccc12)C(=O)O)[C@@H](C)CC)C(C)C)[C@@H](C)CC", "note": "[AWKEKIRKKLKNEIKKKWRKAVIAW]", "values": [{"measurement": "MIC", "setting": "Escherichia coli 319238", "value": 1.26, "unit": "µM"}, {"measurement": "MIC", "setting": "[15]", "value": 0.0786, "unit": "µM"}, {"measurement": "MIC", "setting": "[16]", "value": "≥ 40.3", "unit": "µM"}, {"measurement": "MIC", "setting": "[17]", "value": 0.315, "unit": "µM"}, {"measurement": "MIC", "setting": "Pseudomonas syringae", "value": 8, "unit": "µM"}, {"measurement": "MIC", "setting": "[18]", "value": "≥ 40.3", "unit": "µM"}, {"measurement": "MIC", "setting": "[19]", "value": 0.629, "unit": "µM"}, {"measurement": "MIC", "setting": "Escherichia coli LEC 001", "value": 2.52, "unit": "µM"}, {"measurement": "MIC", "setting": "[20]", "value": 0.157, "unit": "µM"}, {"measurement": "MIC", "setting": "Acinetobacter baumannii", "value": 0.315, "unit": "µM"}, {"measurement": "MIC", "setting": "Klebsiella pneumoniae M6", "value": 2.52, "unit": "µM"}, {"measurement": "MIC", "setting": "[21]", "value": 5.03, "unit": "µM"}, {"measurement": "MIC", "setting": "[22]", "value": 5.03, "unit": "µM"}, {"measurement": "MIC", "setting": "[23]", "value": 2.52, "unit": "µM"}, {"measurement": "MIC", "setting": "[24]", "value": 0.315, "unit": "µM"}, {"measurement": "MIC", "setting": "[25]", "value": 0.629, "unit": "µM"}, {"measurement": "MIC", "setting": "Escherichia coli BL21", "value": 2, "unit": "µM"}, {"measurement": "MIC", "setting": "[26]", "value": "≥ 40.3", "unit": "µM"}, {"measurement": "MIC", "setting": "[27]", "value": 8, "unit": "µM"}, {"measurement": "MIC", "setting": "[28]", "value": 0.25, "unit": "µM"}, {"measurement": "MIC", "setting": "[29]", "value": 0.315, "unit": "µM"}, {"measurement": "MIC", "setting": "[30]", "value": "8 µM and 5.03 µM"}, {"measurement": "MIC", "setting": "[31]", "value": 0.629, "unit": "µM"}, {"measurement": "MIC", "setting": "[32]", "value": 0.0786, "unit": "µM"}, {"measurement": "MIC", "setting": "Staphylococcus aureus 15", "value": "≥ 40.3", "unit": "µM"}, {"measurement": "MIC", "setting": "[33]", "value": 0.315, "unit": "µM"}]}]}
